Here are results for two sequences from US6514942B1, “Methods and compositions for stimulating T-lymphocytes” (The Board of Regents, The University of Texas System, priority 1995, dated 2003).

Common to all, as to assay type: cell-based, human
Assay [1] deals with OVA-16 (HLA-A2+, HER-2high) ovarian tumor. As to the kind of experiment: Cold target inhibition of OVA-16 lysis by 41.CD8+ CTL with peptide-pulsed C1R:A2 cells. The settings on record: cold:hot 2:1, E:T 10:1, 4- and 20-h assays. On the procedure:
FIG. 4A. Target specificity of the 41.CD8^+ CTL were tested for the ability to lyse 5^1Cr-labeled OVA-16 at an E:T ratio of 10:1. C1R:A2 cells (A2.1) were incubated with synthetic peptides (D125, C43, C85), washed, and used in cold target inhibition studies at a cold:hot ratio of 2:1. Cytotoxicity studies were performed for 5 hr. Results represent the mean of three determinations. The variability between samples was less than 10%. The differences between determination are statistically significant (P<0.03) as determined by Student's t test. Percentage inhibition is indicated in parentheses.
FIG. 4B. Target specificity of the 41.CD8^+ CTL were tested for the ability to lyse ^51Cr-labeled OVA-16 at an E:T ratio of 10:1. C1R:A2 cells (A2.1) were incubated with synthetic peptides (D125, C43, C85), washed, and used in cold target inhibition studies at a cold:hot ratio of 2:1. Cytotoxicity studies were performed for 20 hr. Results represent the mean of three determinations. The variability between samples was less than 10%. The differences between determination are statistically significant (P<0.03) as determined by Student's t test. Percentage inhibition is indicated in parentheses.
(§1) Tumor cells and fibroblasts were labeled with 200 μCi of ^51Cr (Na^51CrO4; Amersham, Arlington Heights, Ill.) for 90 min at 37° C. (Ioannides et al., 1991). Lymphoblastoid cells and HLA-A2 transfectants were labeled overnight in RPMI-FCS, then washed three times and incubated with effector cells in RPMI-FCS in an incubator with 5%. CO2 (Bednarek et al., 1991; Gammon et al., 1992). When peptide recognition was determined, targets were incubated with 25 μM of peptides overnight during ^51Cr labeling or with 10 μM peptide for 2 h at 37° C. in RPMI-FCS then washed three times before being incubated with effector cells. Separate controls for spontaneous and total lysis were made for each peptide-pulsed target (Ioannides et al., 1991; Bednarek et al., 1991; Gammon et al., 1992). After 4-5 h, 100 μl of supernatant was collected and counted. To determine maximum lysis in 20-h assays, plates were left undisturbed in the incubator and the supernatant was collected after overnight incubation. For cold target inhibition studies, C1R:A2 cells were preincubated with HER-2 or control peptides overnight, then washed and admixed with ^51Cr-labeled targets at 2:1 and 6:1 (cold:hot targets) ratios. Percentage lysis was calculated from the formula: 100×[(E−S)/(T−S)], where E is experimental release, S is release in the absence of CTL, and T is release in 2 M HCl.
To confirm that the 41.CD8^+ CTL line recognizes epitopes on HER-2^high tumors contained on peptides used for stimulation, cold target inhibition studies were performed. […]

The next assay has as its system C1R:A2 and T2 cells. Put plainly: Lysis by LAK cells in presence of peptides. From the text:
It is unlikely that tumor killing by 41.CD8^+ CTL reflects LAK type activity. LAK cells lyse K562 with higher efficiency than they lyse human tumors (Grimm et al., 1982). Also, both C1R:A2 and SkOV3.A2 were transfected with the same HLA-A2 plasmid expression vector. […] In separate studies, LAK cells lysed effectively both C1R:A2 and T2 cells. This lysis was not affected by C43/C84 or mutated peptides based on this sequence.

Another assay deals with OVA-1, HER-2high. Put plainly: Lysis of peptide pre-pulsed autologous tumor by CTL-TAL (HLA-A2- system). The settings on record: OVA-1 pre-pulsed with peptide. The procedure:
as §1
(§2) To address whether these peptides interfere with tumor lysis by autologous tumor reactive CTL-TAL in HLA-A2^− systems, the lysis of OVA-1, HER-2^high (HLA-A1, 24, B8, 35, Cw4) and OVA-31, HER-2^high was determined by pre-pulsing with either C43 or as a control, C44 peptide (VS→II). Target lysis by CTL-1 was: OVA-1 (68%), K562 (18%), OVA-1 plus C43 (37%), and OVA-1 plus C44 (51%). […] However, C43 and C44 had no effect on lysis of OVA-31 by CTL-31.

Another assay deals with OVA-31, HER-2high. The description is as above. The settings on record: OVA-31 pre-pulsed with peptide. The procedure:
as §1, §2

“Also recorded” adds a separate entry of the source.

As to “ELVSEFSRV [Peptide C84, HER-2:971-979 analog, Met(P9) substituted by Val]”, the “inhibition of tumor lysis by peptide-pulsed cold targets” value in assay [1] is on record as “inhibit HER-2^high tumor lysis; also recorded: specifically inhibit tumor lysis”. In the assay on C1R:A2 and T2 cells, the “effect on lysis by LAK cells” value is recorded as “not affected”.

Turning to “RFRELVSEFSRMAR [Peptide C43, HER-2:968-981 14mer peptide]”, in the assay on OVA-1, HER-2high, the “Target lysis by CTL-1” value worked out at 37% and the “inhibition of lysis of OVA-1 by CTL-1” value was found to be 45%. For the same sequence, in the assay on OVA-31, HER-2high, the “effect on lysis of OVA-31 by CTL-31” value was “no effect”. Besides, the “inhibition of tumor lysis by peptide-pulsed cold targets” value in assay [1] is “inhibited the lysis of the OVA-16 tumor; also recorded: inhibit HER-2^high tumor lysis”. Moreover, the “effect on lysis by LAK cells” value in the assay with C1R:A2 and T2 cells is “not affected”.
